The results in this text go back to PMC12040169 (PLOS Biology, 2025).

The structures appear in SMILES notation.

One data set in a line: in vitro. The following applies: human, hela cells, % viability.
For `C#CCNC(=O)[C@@H]1Cc2cn(Cc3c(C)noc3C)c3cccc(c23)[C@H](CC(C)C)N1` [CBK289425], the viability at 28.5 h, 10 µM was 93.7%.

In the case of `CCNC(=S)N1CC[C@@H]2N(C)CC[C@]2(c2ccc(OC)c(OC)c2)CC1` [CBK059113T], the viability at 28.5 h, 10 µM amounted to 88.5%.

Take `COc1cc(Nc2cc(-c3cccc(N)c3)ncn2)cc(OC)c1OC` [CBK037713]: the viability at 28.5 h, 10 µM was 117%.

For `Cc1nc(C)n(CCNC(=O)C(C)Cc2cccs2)n1` (stereo not shown) [CBK282067], the viability at 28.5 h, 10 µM was 79.7%.

Consider `CCc1ccc(Oc2c(CC(=O)O)oc3cc(O)c(CC)cc3c2=O)cc1` [CBK266108], for which the viability at 28.5 h, 10 µM came out at 106%.

As for `O=C(CCn1cnc2ccccc2c1=O)Nc1ccccc1C(F)(F)F` [CBK270056], the viability at 28.5 h, 10 µM turned out to be 101%.

`CN1CCN(S(=O)(=O)c2ccc(N3CCOCC3)nc2)CC1` [CBK062434]: the viability at 28.5 h, 10 µM was 87.9%.

Take `CCOC(=O)c1cnc(SCC(=O)N2CCN(c3ccccc3)CC2)nc1N` [CBK269159]: the viability at 28.5 h, 10 µM stood at 90.5%.

Consider `CN(C)c1ccc(-n2ncc(-c3ccsc3)n2)cc1` [CBK112845], for which the viability at 28.5 h, 10 µM is 86.8%.

Regarding `Cc1ccc(CCn2cc(C)nc2C)cn1` [CBK021231], the viability at 28.5 h, 10 µM turned out to be 106%.

As to `CCCc1ccc(S(=O)(=O)NCC(=O)OCC)cc1` [CBK034429], the viability at 28.5 h, 10 µM was found to be 113%.

On to `NS(=O)(=O)c1ccc(NC(=O)C2CCCN(S(=O)(=O)c3ccc(Cl)cc3)C2)cc1` (stereo not shown) [CBK266813], for which the viability at 28.5 h, 10 µM worked out at 91.7%.

`COCCN1CCCC(NS(=O)(=O)c2cccc(C(C)=O)c2)C1` (stereo not shown) [CBK305290]: the viability at 28.5 h, 10 µM turned out to be 94.7%.

Consider `CC(=O)NCC1CN(c2ccc3c(c2)CCN3C(=O)OC(C)(C)C)C(=O)O1` (stereo not shown) [CBK012600], for which the viability at 28.5 h, 10 µM was 99.7%.

As to `CC(=O)c1ccc(-c2cc(N3CCN(C(=O)c4ccco4)CC3)ncn2)s1` [CBK036999], the viability at 28.5 h, 10 µM is 105%.

In the case of `CCC(CN1CCOCC1)NC(=O)Cc1coc2cc(C)ccc12` (stereo not shown) [CBK282791], the viability at 28.5 h, 10 µM turned out to be 93.3%.

Take `Cc1cc(-c2cc(=O)n(Cc3ccccc3)nc2C2CC2)on1` [CBK284365]: the viability at 28.5 h, 10 µM worked out at 86.2%.

In the case of `O=C(O)c1ccccc1NS(=O)(=O)Cc1ccccc1[N+](=O)[O-]` [CBK042373], the viability at 28.5 h, 10 µM was 91.9%.

In the case of `Cn1ccnc1C1(O)CCN(C(=O)c2ccc(F)cc2F)CC1` [CBK283552], the viability at 28.5 h, 10 µM was 103%.

With `CC(C)(C)S(=O)(=O)Cc1noc(-c2ccc(Cl)nc2)n1` [CBK089825], the viability at 28.5 h, 10 µM came to 98.9%.

As to `CC(C)c1ccccc1OCC(=O)OCCN1C(=O)c2ccccc2C1=O` [CBK264841], the viability at 28.5 h, 10 µM was found to be 92.2%.

Take `COc1ccc(/C=N/c2cc(S(=O)(=O)c3ccc(O)c(/N=C/c4ccc(OC)c(O)c4)c3)ccc2O)cc1O` [CBK261223]: the viability at 28.5 h, 10 µM came out at 92.3%.

As to `CC(C)c1ccc(/C=C/C(=O)N[C@H]2CC[C@H](O)CC2)cc1` [CBK149644], the viability at 28.5 h, 10 µM came out at 106%.

On to `Nc1cccc(-c2cc(Nc3cccc(OCc4ccccc4)c3)ncn2)c1` [CBK090915], for which the viability at 28.5 h, 10 µM is 113%.

`CCn1cc(CN2CCC(O)(c3ccc(C)cc3)CC2)c(C)n1` [CBK282955]: the viability at 28.5 h, 10 µM worked out at 89.2%.

Consider `Cc1ccc(Cl)cc1NC(=O)C1CC(=O)N(Cc2ccccn2)C1` (stereo not shown) [CBK305561], for which the viability at 28.5 h, 10 µM was 101%.

Take `Cc1ccccc1OCC(O)CNC(=O)c1ccccc1C(=O)O` (stereo not shown) [CBK264824]: the viability at 28.5 h, 10 µM turned out to be 94.8%.

As to `Cc1ccc(OCCn2c(SCCC(=O)O)nc3ccccc32)cc1` [CBK262561], the viability at 28.5 h, 10 µM amounted to 84.7%.

Regarding `CC1CCc2c(sc(NC(=O)c3cccs3)c2C#N)C1` (stereo not shown) [CBK304625], the viability at 28.5 h, 10 µM was 101%.

For the compound `Cc1ncc(C(=O)NC2(c3cccc(F)c3)CCCC2)c(C)n1` [CBK283273], the viability at 28.5 h, 10 µM amounted to 89.4%.

Take `O=c1[nH]cc(CN2CCCN(S(=O)(=O)c3ccc(C(F)(F)F)cc3Cl)CC2)c(=O)[nH]1` [CBK062975]: the viability at 28.5 h, 10 µM is 106%.

Take `CCN(CC)c1nc(Cl)c(C#N)c2c1CN(C)CC2` [CBK009140]: the viability at 28.5 h, 10 µM amounted to 99.2%.

With `CC(=O)NC[C@H]1C[C@@H]2CCN1C[C@@H]2c1cc(-c2ccco2)nc(C)n1` [CBK289128], the viability at 28.5 h, 10 µM was 102%.

For the compound `Cc1c(C(=O)N2CCS(=O)(=O)CC2)nnn1-c1ccc2ncccc2c1` [CBK305529], the viability at 28.5 h, 10 µM is 112%.

As for `O=[N+]([O-])c1ccc(OCCO)cc1` [CBK000628], the viability at 28.5 h, 10 µM amounted to 84.8%.

Regarding `CCN(CC)C(=O)c1c(NS(=O)(=O)c2ccc(C)cc2)sc2c1CCCC2` [CBK028627], the viability at 28.5 h, 10 µM is 111%.

For `O=C(c1ccccc1)N1CCCCC1` [CBK012821], the viability at 28.5 h, 10 µM came out at 99.1%.

For `COc1ccc2ncc(C#N)c(Nc3ccc(OC)c(OC)c3)c2c1` [CBK287808], the viability at 28.5 h, 10 µM was 92.3%.

Regarding `Cc1cc(C)cc(S(=O)(=O)c2ccc3ccnc(N4CCCNCC4)c3c2)c1` [CBK036413C], the viability at 28.5 h, 10 µM turned out to be 87.1%.

`COc1ccc(N2CCN(c3nc(OC)nc(OC)n3)CC2)cc1` [CBK264245]: the viability at 28.5 h, 10 µM turned out to be 100%.

In the case of `O=C(Nc1cnc(-c2ccc(F)c(Cl)c2)c(-c2cccnc2)n1)c1cnccn1` [CBK036819], the viability at 28.5 h, 10 µM came out at 102%.

In the case of `CCn1c(C(CC(C)C)NC(=O)C2CC2)nc2cccnc21` (stereo not shown) [CBK283736], the viability at 28.5 h, 10 µM came to 103%.

For the compound `Cc1noc(C)c1NC(=O)c1cc2ccccc2n1C` [CBK200311], the viability at 28.5 h, 10 µM amounted to 108%.

For the compound `O=C(CN1CCN(c2ccc(C(F)(F)F)cn2)CC1)Nc1ccc2c(c1)OCO2` [CBK074680], the viability at 28.5 h, 10 µM was determined as 102%.

`c1ccc(-c2nc(-c3ccncc3)sc2-c2ccccc2)cc1` [CBK291203]: the viability at 28.5 h, 10 µM is 116%.

For the compound `O=C(NCc1cccc2ccccc12)C1(c2ccccc2)CCCC1` [CBK149534], the viability at 28.5 h, 10 µM worked out at 96.6%.

Regarding `CN1C(=O)COc2ccccc2C/C=C/C[C@@H]2[C@H]1CCCN2C(=O)CNS(C)(=O)=O` [CBK292079], the viability at 28.5 h, 10 µM worked out at 87.7%.

As to `CC(C)(C)c1cc(NC(=O)C(C)(C)S(=O)(=O)c2ccc(C(F)(F)F)cn2)no1` [CBK006849], the viability at 28.5 h, 10 µM was 113%.

Take `CN(C)c1cccc(-c2cc(N3CCN(c4ccccn4)CC3)ncn2)c1` [CBK037825]: the viability at 28.5 h, 10 µM was 104%.

In the case of `O=C(O)c1ccccc1C(=O)NCCC1=CCCCC1` [CBK287113], the viability at 28.5 h, 10 µM stood at 87.8%.

`CCCc1n[nH]c(-c2cc(C(F)(F)F)ccc2F)c1C(=O)OCC` [CBK107231]: the viability at 28.5 h, 10 µM worked out at 94.6%.

Take `Cc1ccc(C(=O)c2coc3ccc(O)cc23)cc1` [CBK115557]: the viability at 28.5 h, 10 µM was 89.1%.

In the case of `CC(C)NCC(O)COC1CCC(C(C)(C)C)CC1` (stereo not shown) [CBK029007C], the viability at 28.5 h, 10 µM came to 89.2%.

On to `NC(=O)c1ccccc1OCCO` [CBK000640], for which the viability at 28.5 h, 10 µM worked out at 87.8%.

`CC(C(=O)Nc1ccc(F)c(F)c1)n1cc([N+](=O)[O-])cn1` (stereo not shown) [CBK268771]: the viability at 28.5 h, 10 µM came to 92.9%.

Turning to `COc1cccc(Cn2c(=O)[nH]n(-c3ccccc3)c2=O)c1` [CBK122771], the viability at 28.5 h, 10 µM stood at 97.7%.

In the case of `Cc1cc(C)c2nc(C(F)(F)F)nc(NCCCN3CCOCC3)c2c1` [CBK266753], the viability at 28.5 h, 10 µM turned out to be 86.4%.

Take `O=C(NCC(c1cccnc1)N1CCOCC1)c1cnc(-c2ccc(Cl)cc2)c(-c2ccco2)c1` (stereo not shown) [CBK037554]: the viability at 28.5 h, 10 µM was found to be 100%.

As to `NC(=O)c1cccc(-c2nc(-c3ccc(F)cc3F)cnc2N)c1` [CBK064109], the viability at 28.5 h, 10 µM is 86.5%.

Turning to `CC(C)Nc1cncc(OC2CCOC2)n1` (stereo not shown) [CBK115882], the viability at 28.5 h, 10 µM was found to be 102%.

On to `CCOc1ccccc1-c1ccccc1NC(=O)c1ccc(-n2nc(C)cc2C)cc1` [CBK285845], for which the viability at 28.5 h, 10 µM was 54.1%.

As to `Cn1nc(C(=O)N2Cc3cnn(Cc4ccc(F)cc4)c3C2)ccc1=O` [CBK306855], the viability at 28.5 h, 10 µM amounted to 83%.

Take `OC1CCN(c2nccc(C(F)(F)F)n2)CC1` [CBK038372]: the viability at 28.5 h, 10 µM was 92.1%.

On to `O=C(N[C@@H](Cn1ccc(=O)[nH]c1=O)C(=O)O)C1CCCCC1` [CBK289651], for which the viability at 28.5 h, 10 µM came out at 85.8%.

As for `CC(=O)Nc1ccc(CN(C)c2c(C)nc3ccc(C(=O)N(C)CCN(C)C)cn23)cc1` [CBK147107], the viability at 28.5 h, 10 µM is 109%.

Consider `CN1CCN(CCCCC2(C)SC(NC3CCCCCC3)=NC2=O)CC1` (stereo not shown) [CBK113259], for which the viability at 28.5 h, 10 µM is 93.3%.

For the compound `CC1=CC2=NC3(CCC3)[C@@H]3C[C@@H](O)[C@@H](O)[C@@H]3N2O1` [CBK303257], the viability at 28.5 h, 10 µM is 92%.

Take `COc1ccc(CC(=O)N2CCC(c3cccc(Cc4cccc(F)c4)n3)CC2)cc1` [CBK286504]: the viability at 28.5 h, 10 µM stood at 100%.

On to `CCOc1ccc(-c2cncc(Nc3ccc4c(c3)OC(F)(F)C(F)(F)O4)n2)cc1` [CBK065728], for which the viability at 28.5 h, 10 µM was 96.8%.

Take `COc1ccc(-c2cc(C3CCN(C(=O)C4CC4)C3)[nH]n2)cc1` (stereo not shown) [CBK285263]: the viability at 28.5 h, 10 µM was determined as 91.5%.

Regarding `CC1(C)C(C(=O)O)C1C(=O)NCCc1ccc(O)cc1` (stereo not shown) [CBK286832], the viability at 28.5 h, 10 µM turned out to be 104%.

Consider `CCC1CCCCN1CC(=O)N1CCCC1c1nc2ccccc2[nH]1` (stereo not shown) [CBK282695], for which the viability at 28.5 h, 10 µM came to 93.5%.

With `Brc1csc(CN2CCN3CCCC3C2C2CCCCC2)c1` (stereo not shown) [CBK026298], the viability at 28.5 h, 10 µM came to 103%.

For the compound `COc1ccc(-c2nn(-c3ccccc3)cc2C(=O)Nc2ccc(C(=O)O)cc2)cc1OC` [CBK296112], the viability at 28.5 h, 10 µM is 95%.

For `Nc1nc2c([C@H]3C[C@@H](O)[C@@H](CO)O3)c[nH]c2c(=O)[nH]1` [CBK201194], the viability at 28.5 h, 10 µM was found to be 102%.

Regarding `CC(C)(C)C1=CC2=NC3(CCC3)C3C[C@](O)(COCc4ccccc4)[C@@H](O)[C@@H]3N2O1` (stereo partly shown) [CBK303259], the viability at 28.5 h, 10 µM was found to be 102%.

Turning to `N#Cc1ccccc1NC(=O)CSc1cnn[nH]1` [CBK269795], the viability at 28.5 h, 10 µM is 89.3%.

For `CC(=O)CSc1nnc(COc2ccc(C3CCCCC3)cc2)n1-c1ccccc1` [CBK265026], the viability at 28.5 h, 10 µM was determined as 116%.

The data set is the same for the next values; noted with them: human, hela cells, % viability, bulk resorufin, single well.
`COC(=O)c1ccc(N2C(=O)NC(=O)/C(=C\c3ccccc3OCC(=O)O)C2=O)cc1` [CBK265459]: the viability at 28.5 h, 10 µM stood at 84.7%.
